molecular target: T1, CFTR (Homo sapiens, UniProt P13569); experiment: T84 assay (FLIPR membrane potential dye, forskolin/IBMX-stimulated CFTR channel activity); assay type: cell-based; details: imidazole and triazole-containing compounds (Tables 13, 14, 14′), read-out: IC50 (μM) (T84 assay)
T1 construct: endogenous in cells; host or cells: T84 human colonic cells (ECACC)
Method: (§1) For example, Human colonic T84 cells can be acquired from the European Collection of Cell Cultures (ECACC) and grown in standard culture conditions as described by the supplier. On the day before assay 25,000 T84 cells per well are plated into standard black walled, clear bottom 384-well assay plates in standard growth medium consisting of DMEM:F12 with 10% FBS and incubated overnight. On the day of the assay the plates are washed using a standard assay buffer (HBSS with 10 mM Hepes) and incubated for 15 minutes in serum free cell culture medium before the addition of a commercially available membrane potential sensitive fluorescent dye (FLIPRRed membrane potential dye, Molecular Devices Corporation). T84 cells are incubated with the FLIPRRed membrane potential dye for 45 minutes in the presence and absence of test compound before being transferred to a commercially available fluorescence imaging plate reader (FLIPR384, Molecular Devices Corporation). Fluorescence levels are monitored continuously every second for 150 seconds; after an initial 10 second baseline, CFTR channel activity is stimulated through the addition of 10 μM forskolin in the presence of 100 μM of the phosphodiesterase inhibitor iso-butyl-methylxanthine (IBMX). Addition of the forskolin leads to the activation of intracellular adenylyl cylase 1, elevating cAMP levels and results in the phosphorylation and opening of CFTR anion channels. CFTR channel opening causes chloride ion efflux and subsequent depolarization of the cells, which is measured by an increase in fluorescence. CFTR inihibitor compounds prevent cell depolarization and the associatred increase in fluorescence.
as §1, with “Human colonic” for “For example, Human colonic”, “T84 cells are acquired from” for “T84 cells can be acquired from”, “(ECACC) and are grown in” for “(ECACC) and grown in”, “10 μM Forskolin in the” for “10 μM forskolin in the”, “fluorescence. CFTR inhibitor compounds prevent” for “fluorescence. CFTR inihibitor compounds prevent”, “and the associated increase in” for “and the associatred increase in”

T1 sequence (P13569 whole entry): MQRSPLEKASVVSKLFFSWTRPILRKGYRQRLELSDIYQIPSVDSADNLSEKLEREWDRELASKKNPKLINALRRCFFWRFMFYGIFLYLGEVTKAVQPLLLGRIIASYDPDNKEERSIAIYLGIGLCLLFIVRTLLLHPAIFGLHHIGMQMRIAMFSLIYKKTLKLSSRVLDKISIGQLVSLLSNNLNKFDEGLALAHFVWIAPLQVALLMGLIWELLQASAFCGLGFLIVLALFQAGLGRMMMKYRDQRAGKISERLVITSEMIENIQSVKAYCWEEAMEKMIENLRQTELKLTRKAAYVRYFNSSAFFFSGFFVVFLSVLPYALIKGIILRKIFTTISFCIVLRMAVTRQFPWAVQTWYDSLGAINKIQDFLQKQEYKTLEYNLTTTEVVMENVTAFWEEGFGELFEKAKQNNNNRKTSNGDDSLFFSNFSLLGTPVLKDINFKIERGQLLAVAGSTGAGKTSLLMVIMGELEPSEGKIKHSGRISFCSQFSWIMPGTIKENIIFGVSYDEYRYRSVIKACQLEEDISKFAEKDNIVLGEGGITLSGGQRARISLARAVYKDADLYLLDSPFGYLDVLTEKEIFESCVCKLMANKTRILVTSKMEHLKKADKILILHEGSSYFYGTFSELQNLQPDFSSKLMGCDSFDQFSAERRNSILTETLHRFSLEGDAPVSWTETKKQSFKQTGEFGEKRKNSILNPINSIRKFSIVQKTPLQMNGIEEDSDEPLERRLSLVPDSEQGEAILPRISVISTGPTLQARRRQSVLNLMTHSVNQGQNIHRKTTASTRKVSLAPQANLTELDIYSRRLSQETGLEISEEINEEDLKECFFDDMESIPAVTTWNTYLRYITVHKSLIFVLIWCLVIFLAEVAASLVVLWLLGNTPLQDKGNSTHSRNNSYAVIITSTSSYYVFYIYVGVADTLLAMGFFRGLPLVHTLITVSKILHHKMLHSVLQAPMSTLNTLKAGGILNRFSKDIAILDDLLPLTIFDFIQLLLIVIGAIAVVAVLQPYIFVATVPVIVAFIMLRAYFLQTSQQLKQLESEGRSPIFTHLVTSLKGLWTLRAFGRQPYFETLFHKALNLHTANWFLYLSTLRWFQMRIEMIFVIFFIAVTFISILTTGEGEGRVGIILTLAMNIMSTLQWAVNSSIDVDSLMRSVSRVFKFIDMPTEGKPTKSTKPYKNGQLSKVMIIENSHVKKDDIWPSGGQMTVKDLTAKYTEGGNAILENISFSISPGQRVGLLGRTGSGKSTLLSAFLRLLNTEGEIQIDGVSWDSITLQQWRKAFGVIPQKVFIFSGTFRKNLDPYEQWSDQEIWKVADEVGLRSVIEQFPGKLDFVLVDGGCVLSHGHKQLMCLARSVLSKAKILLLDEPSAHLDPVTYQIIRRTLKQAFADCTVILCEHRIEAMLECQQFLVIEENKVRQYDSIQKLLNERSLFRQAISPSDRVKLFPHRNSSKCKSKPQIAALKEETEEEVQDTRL

| IC50 [µM] | Compound |
| --- | --- |
| 21.4 | COCCOCCOCCOCCOCCOCCOCCOCCN(Cc1ccc(C(C)(C)C)cc1)C(=O)c1ncn(-c2cc(Cl)c(O)c(Cl)c2)n1 [117i, N-(4-tert-butylbenzyl)-1-(3,5-dichloro-4-hydroxyphenyl)-N-(2,5,8,11,14,17,20,23-octaoxapentacosan-25-yl)-1H-1,2,4-triazole-3-carboxamide] |
| 15.7 | CN(Cc1ccc(OC(F)(F)F)cc1)C(=O)c1ncn(-c2cc(Cl)c(O)c(Cl)c2)n1 [7i, 1-(3,5-dichloro-4-hydroxyphenyl)-N-methyl-N-(4(trifluoromethoxy)benzyl)-1H-1,2,4-triazole-3-carboxamide] |
| 5.9 | COCCOCCOCCOCCN(Cc1ccc(C(C)(C)C)cc1)C(=O)c1ncn(-c2cc(Cl)c(O)c(Cl)c2)n1 [120i, N-(4-tert-butylbenzyl)-1-(3,5-dichloro-4-hydroxyphenyl)-N-(2,5,8,11-tetraoxatridecan-13-yl)-1H-1,2,4-triazole-3-carboxamide] |
| 17.6 | CC(NC(=O)c1ncn(-c2cc(Cl)c(O)c(Cl)c2)n1)c1ccc(F)cc1 (stereo not drawn) [9i, 1-(3,5-dichloro-4-hydroxyphenyl)-N-(1-(4-fluorophenyl)ethyl)-1H-1,2,4-triazole-3-carboxamide] |

same assay, conditions: oxadiazole-containing compounds (a series), average of at least 2 runs unless annotated n = 1, read-out: IC50

| IC50 [µM] | Compound |
| --- | --- |
| 6.21 | O=C(NCc1ccc(N2CCCCC2)cc1)c1nc(-c2cc(Cl)c(O)c(Cl)c2)no1 [166a, 3-(3,5-dichloro-4-hydroxyphenyl)-N-(4-(piperidin-1-yl)benzyl)-1,2,4-oxadiazole-5-carboxamide] |
| 11 | O=C(NCc1ccc(Cl)c(Cl)c1)c1nc(-c2cc(Br)c(O)c(Br)c2)no1 [22a, 3-(3,5-dibromo-4-hydroxyphenyl)-N-(3,4-dichlorobenzyl)-1,2,4-oxadiazole-5-carboxamide] |
| 2.09 | O=C(NCc1cccc(OC(F)(F)F)c1)c1noc(-c2cc(Cl)c(O)c(Cl)c2)n1 [75a, 5-(3,5-dichloro-4-hydroxyphenyl)-N-(3-(trifluoromethoxy)benzyl)-1,2,4-oxadiazole-3-carboxamide] |
| 7.94 | CN(Cc1cccc(Oc2ccccn2)c1)C(=O)c1nc(-c2cc(Cl)c(O)c(Cl)c2)no1 [178a, 3-(3,5-dichloro-4-hydroxyphenyl)-N-methyl-N-(3-(pyridin-2-yloxy)benzyl)-1,2,4-oxadiazole-5-carboxamide] |
| 3.84 | CN(Cc1ccc(C(F)(F)F)cc1)C(=O)c1nc(-c2cc(Cl)c(O)c(Cl)c2)no1 [138a, 3-(3,5-dichloro-4-hydroxyphenyl)-N-methyl-N-(4-(trifluoromethyl)benzyl)-1,2,4-oxadiazole-5-carboxamide] |
| 6.83 | O=C(NCc1ccc(-c2ccccc2)cc1)c1nc(-c2cc(Cl)c(O)c(Cl)c2)no1 [131a, N-(biphenyl-4-ylmethyl)-3-(3,5-dichloro-4-hydroxyphenyl)-1,2,4-oxadiazole-5-carboxamide] |
| 17.1 | O=C(c1nc(-c2cc(Br)c(O)c(Br)c2)no1)N1CCN(c2ccc(F)cc2F)CC1 [31a] |
| 23.1 | CC(C)(C)CCNC(=O)c1nc(-c2cc(Br)c(O)c(Br)c2)no1 [105a, 3-(3,5-dibromo-4-hydroxyphenyl)-N-(3,3-dimethylbutyl)-1,2,4-oxadiazole-5-carboxamide] |
| 3.76 | CCOCCN(Cc1cccc(C(F)(F)F)c1)C(=O)c1nc(-c2cc(Cl)c(O)c(Cl)c2)no1 [110a, 3-(3,5-dichloro-4-hydroxyphenyl)-N-(2-ethoxyethyl)-N-(3-(trifluoromethyl)benzyl)-1,2,4-oxadiazole-5-carboxamide] |
| 2.99 | O=C(NCc1ccc(OCc2ccccc2)cc1)c1nc(-c2cc(Cl)c(O)c(Cl)c2)no1 [153a, N-(4-(benzyloxy)benzyl)-3-(3,5-dichloro-4-hydroxyphenyl)-1,2,4-oxadiazole-5-carboxamide] |
| 10.1 | O=C(NCc1cccc(F)c1F)c1noc(-c2cc(Cl)c(O)c(Cl)c2)n1 [102a, 5-(3,5-dichloro-4-hydroxyphenyl)-N-(2,3-difluorobenzyl)-1,2,4-oxadiazole-3-carboxamide] |
| 23 | O=C(NCc1ccc(C(F)(F)F)cc1)c1nc(-c2cc(Br)c(O)c(Br)c2)no1 [37a, 3-(3,5-dibromo-4-hydroxyphenyl)-N-(4-(trifluoromethyl)benzyl)-1,2,4-oxadiazole-5-carboxamide] |
| 26.7 | O=C(O)COc1c(Br)cc(-c2noc(C(=O)N3CCC(Cc4ccccc4)CC3)n2)cc1Br [39a, 2-(4-(5-(4-benzylpiperidine-1-carbonyl)-1,2,4-oxadiazol-3-yl)-2,6-dibromophenoxy) acetic acid] |
| 21.4 | O=C(NCc1ccccc1C(F)(F)F)c1nc(-c2cc(Br)c(O)c(Br)c2)no1 [36a, 3-(3,5-dibromo-4-hydroxyphenyl)-N-(2-(trifluoromethyl)benzyl)-1,2,4-oxadiazole-5-carboxamide] |
| 6.21 | O=C(NCc1cccc(-n2cccn2)c1)c1noc(-c2cc(Cl)c(O)c(Cl)c2)n1 [161a, N-(3-(1H-pyrazol-1-yl)benzyl)-5-(3,5-dichloro-4-hydroxyphenyl)-1,2,4-oxadiazole-3-carboxamide] |
| 2.33 | O=C(NCc1cc(Cl)cc(Cl)c1)c1noc(-c2cc(Cl)c(O)c(Cl)c2)n1 [85a, 5-(3,5-dichloro-4-hydroxyphenyl)-N-(3,5-dichlorobenzyl)-1,2,4-oxadiazole-3-carboxamide] |
| 24.6 | CN(Cc1cccc(C(F)(F)F)c1)C(=O)c1noc(-c2cc(Cl)c(OCC(=O)O)c(Cl)c2)n1 [106a, 2-(2,6-dichloro-4-(3-(methyl(3-(trifluoromethyl)benzyl)carbamoyl)-1,2,4-oxadiazol-5-yl)phenoxy)acetic acid] |
| 16.4 | O=C(NCc1ccc(Cl)c(F)c1)c1nc(-c2cc(Cl)c(O)c(Cl)c2)no1 [123a, N-(4-chloro-3-fluorobenzyl)-3-(3,5-dichloro-4-hydroxyphenyl)-1,2,4-oxadiazole-5-carboxamide] |
| 16.9 | CN(Cc1ccc(-c2ncccn2)cc1)C(=O)c1nc(-c2cc(Cl)c(O)c(Cl)c2)no1 [189a, 3-(3,5-dichloro-4-hydroxyphenyl)-N-methyl-N-(4-(pyrimidin-2-yl)benzyl)-1,2,4-oxadiazole-5-carboxamide] |
| 12.2 | CN(C)c1cccc(Oc2ccc(CNC(=O)c3nc(-c4cc(Cl)c(O)c(Cl)c4)no3)cc2)c1 [199a, 3-(3,5-dichloro-4-hydroxyphenyl)-N-(4-(3-(dimethylamino)phenoxy)benzyl)-1,2,4-oxadiazole-5-carboxamide] |
| 19.8 | O=C(c1nc(-c2cc(Br)c(O)c(Br)c2)no1)N(CCO)Cc1ccccc1 [122a, N-benzyl-3-(3,5-dibromo-4-hydroxyphenyl)-N-(2-hydroxyethyl)-1,2,4-oxadiazole-5-carboxamide] |
| 17.6 | CC(C)(C)c1ccc(Oc2ccc(CNC(=O)c3nc(-c4cc(Cl)c(O)c(Cl)c4)no3)cc2)cc1 [192a, N-(4-(4-tert-butylphenoxy)benzyl)-3-(3,5-dichloro-4-hydroxyphenyl)-1,2,4-oxadiazole-5-carboxamide] |
| 6.24 | CC(C)(C)C(=O)CN(Cc1ccccc1)C(=O)c1nc(-c2cc(Cl)c(O)c(Cl)c2)no1 [151a, N-benzyl-3-(3,5-dichloro-4-hydroxyphenyl)-N-(3,3-dimethyl-2-oxobutyl)-1,2,4-oxadiazole-5-carboxamide] |
| 2.11 | O=C(c1nc(-c2cc(Cl)c(O)c(Cl)c2)no1)N(Cc1ccc(Oc2ccccc2)cc1)Cc1cccnc1 [168a, 3-(3,5-dichloro-4-hydroxyphenyl)-N-(4-phenoxybenzyl)-N-(pyridin-3-ylmethyl)-1,2,4-oxadiazole-5-carboxamide] |
| 4.72 | O=C(c1nc(-c2cc(Br)c(O)c(Br)c2)no1)N1CCN(c2ccc(Cl)c(C(F)(F)F)c2)CC1 [4a, (4-(4-chloro-3-(trifluoromethyl)phenyl)piperazin-1-yl)(3-(3,5-dibromo-4-hydroxyphenyl)-1,2,4-oxadiazol-5-yl)methanone] |

same assay, conditions: thiadiazole-containing compounds (Table 12), read-out: IC50

| IC50 [µM] | Compound |
| --- | --- |
| 12.7 | Cc1cc(Cl)ccc1OCc1nnc(-c2cc(Cl)c(O)c(Cl)c2)s1 [4h, 2,6-dichloro-4(5-((4-chloro-2-methylphenoxy)methyl)-1,3,4-thiadiazol-2-yl)phenol] |
